From US20120220562A1, “Anti-Viral Compounds” (ABBOTT LABAORATORIES, priority 2011, published 2012) come the findings set out here.

The assay concerns HCV 1b-Con1 replicon. Put plainly: HCV 1b-Con1 replicon assay in the presence of 5% FBS. It is filed as cell-based. As to conditions: Hepatitis C virus. In general terms: A replicon is a self-replicating genome or part of one, used to study replication in cells.
Take `COC(=O)N[C@H](C(=O)N1CCC[C@H]1c1nc2cc([C@H]3CC[C@H](c4ccc5nc([C@@H]6CCCN6C(=O)[C@@H](NC(=O)OC)C(C)C)[nH]c5c4)N3c3ccc(C4CCCCC4)c(F)c3)ccc2[nH]1)C(C)C` [Example 4.8, methyl {(2S)-1-[(2S)-2-{5-[(2R,5R)-1-(4-cyclohexyl-3-fluorophenyl)-5-{2-[(2S)-1-{(2S)-2-[(methoxycarbonyl)amino]-3-methylbutanoyl}pyrrolidin-2-yl]-1H-benzimidazol-6-yl}pyrrolidin-2-yl]-1H-benzimidazol-2-yl}pyrrolidin-1-yl]-3-methyl-1-oxobutan-2-yl}carbamate]: the EC50 was below 0.1 nM.

`COC(=O)N[C@H](C(=O)N1[C@H](c2nc3cc([C@H]4CC[C@H](c5cc6nc([C@@H]7C[C@@H]8CCC[C@@H]8N7C(=O)[C@@H](NC(=O)OC)[C@@H](C)OC)[nH]c6cc5F)N4c4cc(F)c(N5CCCCC5)c(F)c4)c(F)cc3[nH]2)C[C@@H]2CCC[C@@H]21)[C@@H](C)OC` [Example 3.38, methyl {(2S,3R)-1-[(2S,3aS,6aS)-2-{5-[(2R,5R)-1-[3,5-difluoro-4-(piperidin-1-yl)phenyl]-5-(6-fluoro-2-{(2S,3aS,6aS)-1-[N-(methoxycarbonyl)-O-methyl-L-threonyl]octahydrocyclopenta[b]pyrrol-2-yl}-1H-benzimidazol-5-yl)pyrrolidin-2-yl]-6-fluoro-1H-benzimidazol-2-yl}hexahydrocyclopenta[b]pyrrol-1(2H)-yl]-3-methoxy-1-oxobutan-2-yl}carbamate]: the EC50 is below 0.1 nM.

`CCC1(COc2ccc(N3[C@@H](c4ccc5[nH]c([C@@H]6CCCN6C(=O)[C@@H](NC(=O)OC)C(C)C)nc5c4)CC[C@@H]3c3ccc4[nH]c([C@@H]5CCCN5C(=O)[C@@H](NC(=O)OC)C(C)C)nc4c3)cc2)COC1` [Example 1.7, methyl {(2S)-1-[(2S)-2-{5-[(2R,5R)-1-{4-[(3-ethyloxetan-3-yl)methoxy]phenyl}-5-{2-[(2S)-1-{(2S)-2-[(methoxycarbonyl)amino]-3-methylbutanoyl}pyrrolidin-2-yl]-1H-benzimidazol-5-yl}pyrrolidin-2-yl]-1H-benzimidazol-2-yl}pyrrolidin-1-yl]-3-methyl-1-oxobutan-2-yl}carbamate]: the EC50 is below 0.1 nM.

In the case of `COC(=O)N[C@H](C(=O)N1CCC[C@H]1c1nc2ccc([C@H]3CC[C@H](c4ccc5nc([C@@H]6CCCN6C(=O)[C@@H](NC(=O)OC)C(C)C)[nH]c5c4)N3c3c(F)c(F)c(N4CCCCC4)c(F)c3F)cc2[nH]1)C(C)C` [Example 2.6, methyl {(2S)-1-[(2S)-2-(6-{(2R,5R)-5-{2-[(2S)-1-{(2S)-2-[(methoxycarbonyl)amino]-3-methylbutanoyl}pyrrolidin-2-yl]-1H-benzimidazol-6-yl}-1-[2,3,5,6-tetrafluoro-4-(piperidin-1-yl)phenyl]pyrrolidin-2-yl}-1H-benzimidazol-2-yl)pyrrolidin-1-yl]-3-methyl-1-oxobutan-2-yl}carbamate], the EC50 is below 0.1 nM.

In the case of `COC(=O)N[C@H](C(=O)N1CCC[C@H]1c1nc2cc([C@H]3CC[C@H](c4cc5nc([C@@H]6CCCN6C(=O)[C@@H](NC(=O)OC)C6CCOCC6)[nH]c5cc4F)N3c3cc(F)c(N4CCC(c5ccccc5)CC4)c(F)c3)c(F)cc2[nH]1)C1CCOCC1` [Example 4.39, dimethyl ({(2R,5R)-1-[3,5-difluoro-4-(4-phenylpiperidin-1-yl)phenyl]pyrrolidine-2,5-diyl}bis{(6-fluoro-1H-benzimidazole-5,2-diyl)(2S)pyrrolidine-2,1-diyl[(1S)-2-oxo-1-(tetrahydro-2H-pyran-4-yl)ethane-2,1-diyl]})biscarbamate], the EC50 is below 0.1 nM.

With `COC(=O)N[C@H](C(=O)N1CCC[C@H]1c1nc2cc([C@H]3CC[C@H](c4cc5nc([C@@H]6CCCN6C(=O)[C@@H](NC(=O)OC)C(C)C)[nH]c5cc4F)N3c3cc(F)c(N4CCC(c5ccc(F)cc5)CC4)c(F)c3)c(F)cc2[nH]1)C(C)C` [Example 4.57, methyl {(2S)-1-[(2S)-2-{5-[(2R,5R)-1-{3,5-difluoro-4-[4-(4-fluorophenyl)piperidin-1-yl]phenyl}-5-{6-fluoro-2-[(2S)-1-{(2S)-2-[(methoxycarbonyl)amino]-3-methylbutanoyl}pyrrolidin-2-yl]-1H-benzimidazol-5-yl}pyrrolidin-2-yl]-6-fluoro-1H-benzimidazol-2-yl}pyrrolidin-1-yl]-3-methyl-1-oxobutan-2-yl}carbamate], the EC50 is below 0.1 nM.

Consider `COC(=O)N[C@H](C(=O)N1CCC[C@H]1c1nc2ccc([C@H]3CC[C@H](c4ccc5nc([C@@H]6CCCN6C(=O)[C@@H](NC(=O)OC)C(C)C)[nH]c5c4)N3c3cc(F)c(N4CCC(c5ccc([Si](C)(C)C)cc5)CC4)c(F)c3)cc2[nH]1)C(C)C` [Example 2.14, methyl {(2S)-1-[(2S)-2-{5-[(2R,5R)-1-(3,5-difluoro-4-{4-[4-(trimethylsilyl)phenyl]piperidin-1-yl}phenyl)-5-{2-[(2S)-1-{(2S)-2-[(methoxycarbonyl)amino]-3-methylbutanoyl}pyrrolidin-2-yl]-1H-benzimidazol-5-yl}pyrrolidin-2-yl]-1H-benzimidazol-2-yl}pyrrolidin-1-yl]-3-methyl-1-oxobutan-2-yl}carbamate], for which the EC50 was below 0.1 nM.

As to `COC(=O)N[C@H](C(=O)N1CCC[C@H]1c1nc2ccc([C@H]3CC[C@H](c4ccc5nc([C@@H]6CCCN6C(=O)[C@@H](NC(=O)OC)C(C)C)[nH]c5c4)N3c3ccc(N(C(C)=O)C(C)(C)C)c(F)c3)cc2[nH]1)C(C)C` [Example 2.8, methyl {(2S)-1-[(2S)-2-{6-[(2R,5R)-1-{4-[acetyl(tert-butyl)amino]-3-fluorophenyl}-5-{2-[(2S)-1-{(2S)-2-[(methoxycarbonyl)amino]-3-methylbutanoyl}pyrrolidin-2-yl]-1H-benzimidazol-6-yl}pyrrolidin-2-yl]-1H-benzimidazol-2-yl}pyrrolidin-1-yl]-3-methyl-1-oxobutan-2-yl}carbamate], the EC50 fell in the range of 0.1 to 1 nM.

Regarding `COC(=O)N[C@H](C(=O)N1CCC[C@H]1c1nc2cc([C@H]3CC[C@H](c4ccc5[nH]c([C@@H]6CCCN6C(=O)[C@@H](NC(=O)OC)C(C)C)nc5c4)N3c3cc(F)c(N4CC=C(c5ccccc5)CC4)c(F)c3)ccc2[nH]1)C(C)C` [Example 5.15, methyl {(2S)-1-[(2S)-2-{5-[(2R,5R)-1-[3,5-difluoro-4-(4-phenyl-3,6-dihydropyridin-1(2H)-yl)phenyl]-5-{2-[(2S)-1-{(2S)-2-[(methoxycarbonyl)amino]-3-methylbutanoyl}pyrrolidin-2-yl]-1H-benzimidazol-5-yl}pyrrolidin-2-yl]-1H-benzimidazol-2-yl}pyrrolidin-1-yl]-3-methyl-1-oxobutan-2-yl}carbamate], the EC50 was below 0.1 nM.

Regarding `COC(=O)N[C@H](C(=O)N1CCC[C@H]1c1nc2cc([C@H]3CC[C@H](c4ccc5[nH]c([C@@H]6CCCN6C(=O)[C@@H](NC(=O)OC)C(C)C)nc5c4)N3c3cc(F)c(N4CC(C)(C)C4)c(F)c3)ccc2[nH]1)C(C)C` [Example 4.24, methyl {(2S)-1-[(2S)-2-{5-[(R2R,5R)-1-[4-(3,3-dimethylazetidin-1-yl)-3,5-difluorophenyl]-5-{2-[(2S)-1-{(2S)-2-[(methoxycarbonyl)amino]-3-methylbutanoyl}pyrrolidin-2-yl]-1H-benzimidazol-5-yl}pyrrolidin-2-yl]-1H-benzimidazol-2-yl}pyrrolidin-1-yl]-3-methyl-1-oxobutan-2-yl}carbamate], the EC50 was below 0.1 nM.

On to `COC(=O)N[C@H](C(=O)N1CCC[C@H]1c1nc2cc([C@H]3CC[C@H](c4cc5nc([C@@H]6CCCN6C(=O)[C@@H](NC(=O)OC)C(C)C)[nH]c5cc4F)N3c3cc(F)c(N4CCC(F)(c5ccccc5)CC4)c(F)c3)c(F)cc2[nH]1)C(C)C` [Example 4.62, methyl {(2S)-1-[(2S)-2-{5-[(2R,5R)-1-[3,5-difluoro-4-(4-fluoro-4-phenylpiperidin-1-yl)phenyl]-5-{6-fluoro-2-[(2S)-1-{(2S)-2-[(methoxycarbonyl)amino]-3-methylbutanoyl}pyrrolidin-2-yl]-1H-benzimidazol-5-yl}pyrrolidin-2-yl]-6-fluoro-1H-benzimidazol-2-yl}pyrrolidin-1-yl]-3-methyl-1-oxobutan-2-yl}carbamate], for which the EC50 is below 0.1 nM.

For `COC(=O)N[C@H](C(=O)N1[C@H](c2nc3cc([C@H]4CC[C@H](c5ccc6[nH]c([C@@H]7C[C@@H]8CCC[C@@H]8N7C(=O)[C@@H](NC(=O)OC)[C@@H](C)OC)nc6c5)N4c4cc(F)c(N5CCCCC5)c(F)c4)ccc3[nH]2)C[C@@H]2CCC[C@@H]21)[C@@H](C)OC` [Example 3.33], the EC50 was below 0.1 nM.

As to `COC(=O)N[C@H](C(=O)N1CCC[C@H]1c1nc2cc([C@H]3CC[C@H](c4cc5nc([C@@H]6CCCN6C(=O)[C@@H](NC(=O)OC)C6CCCC6)[nH]c5cc4F)N3c3cc(F)c(N4CCC(C(C)(C)C)CC4)c(F)c3)c(F)cc2[nH]1)C1CCCC1` [Example 4.28, dimethyl ({(2R,5R)-1-[4-(4-tert-butylpiperidin-1-yl)-3,5-difluorophenyl]pyrrolidine-2,5-diyl}bis{(6-fluoro-1H-benzimidazole-5,2-diyl)(2S)pyrrolidine-2,1-diyl[(1S)-1-cyclopentyl-2-oxoethane-2,1-diyl]})biscarbamate], the EC50 was below 0.1 nM.

Turning to `COC(=O)NC(C(=O)N1CCC[C@H]1c1nc2cc([C@H]3CC[C@H](c4ccc5[nH]c([C@@H]6CCCN6C(=O)C(NC(=O)OC)C(C)C)nc5c4)N3c3cc(F)c(N4CCC(F)CC4)c(F)c3)ccc2[nH]1)C(C)C` (stereo partly drawn) [Example 1.6, methyl {1-[(2S)-2-{5-[(2R,5R)-1-[3,5-difluoro-4-(4-fluoropiperidin-1-yl)phenyl]-5-{2-[(2S)-1-{2-[(methoxycarbonyl)amino]-3-methylbutanoyl}pyrrolidin-2-yl]-1H-benzimidazol-5-yl}pyrrolidin-2-yl]-1H-benzimidazol-2-yl}pyrrolidin-1-yl]-3-methyl-1-oxobutan-2-yl}carbamate], the EC50 was below 0.1 nM.

As a reminder, the EC50 is the concentration giving half of the maximal effect.
